Each structure is given as a SMILES string. Several values for one entry are separate records, joined by “and”; a condition that tells them apart may be missing. Equal entries are not always repeated. Toxic doses and inconclusive results are not listed.

In this test the test system is L1210 leukemia ip in BDF1 mice, survival T/C. Description: NCI In Vivo Anticancer Drug Screen. Data for tumor model L1210 Leukemia (intraperitoneal) in B6D2F1 (BDF1) mice. The note with it: endpoint: mean survival time, higher = longer survival. An outline of the steps:
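Ratio derived from survival: compound-dosed mice over vehicle-dosed mice, all bearing a transplantable tumor.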

Setting [1] is: dose: 100.0 mg/kg/injection, schedule: Q01DX009 (ip), vehicle: saline.
The mark [2] stands for this setting: dose: 50.0 mg/kg/injection, schedule: Q01DX009 (ip), vehicle: Klucel (hydroxypropylcellulose) (HPC).
Where [3] appears, read: dose: 100.0 mg/kg/injection, schedule: Q01DX009 (ip), vehicle: Klucel (hydroxypropylcellulose) (HPC).
Where [4] appears, read: dose: 200.0 mg/kg/injection, schedule: Q01DX009 (ip), vehicle: Klucel (hydroxypropylcellulose) (HPC).
[5] abbreviates: dose: 100.0 mg/kg/injection, schedule: Q01DX001 (ip), vehicle: saline.
[6] abbreviates: dose: 100.0 mg/kg/injection, schedule: Q04DX003 (ip), vehicle: saline.
[7] abbreviates: dose: 200.0 mg/kg/injection, schedule: Q04DX003 (ip), vehicle: saline.
[8] abbreviates: dose: 400.0 mg/kg/injection, schedule: Q01DX001 (ip), vehicle: saline.
The mark [9] stands for this setting: dose: 400.0 mg/kg/injection, schedule: Q04DX003 (ip), vehicle: saline.
Where [10] appears, read: dose: 100.0 mg/kg/injection, schedule: Q04DX002 (ip), vehicle: Klucel (hydroxypropylcellulose) (HPC).
The mark [11] stands for this setting: dose: 200.0 mg/kg/injection, schedule: Q04DX002 (ip), vehicle: Klucel (hydroxypropylcellulose) (HPC).
Where [12] appears, read: dose: 100.0 mg/kg/injection, schedule: Q01DX001 (ip), vehicle: carboxymethylcellulose (CMC).
[13] abbreviates: dose: 200.0 mg/kg/injection, schedule: Q01DX001 (ip), vehicle: carboxymethylcellulose (CMC).
The mark [14] stands for this setting: dose: 400.0 mg/kg/injection, schedule: Q01DX001 (ip), vehicle: carboxymethylcellulose (CMC).

Regarding `CN(Cc1cnc2cc(N)[nH]c(=O)c2n1)c1ccc(C(=O)NC(CCC(=O)O)C(=O)O)cc1` (centres undefined), the T/C runs as follows: (dose: 100.0 mg/kg/injection, schedule: Q04DX002 (ip), vehicle: water) 94 % of control; (dose: 200.0 mg/kg/injection, schedule: Q04DX002 (ip), vehicle: water) 99 % of control; (dose: 400.0 mg/kg/injection, schedule: Q04DX002 (ip), vehicle: water) 118 % of control.

For `CCCCC(=O)OCC1OC(n2cnc3c(=S)nc[nH]c32)C(OC(=O)CCCC)C1OC(=O)CCCC` (centres undefined), the T/C is 151 % of control (dose: 50.0 mg/kg/injection, schedule: Q01DX015 (ip), vehicle: carboxymethylcellulose (CMC)); 117 % of control (dose: 50.0 mg/kg/injection, schedule: Q01DX Z (ip), vehicle: carboxymethylcellulose (CMC)); 172 % of control (dose: 100.0 mg/kg/injection, schedule: Q01DX015 (ip), vehicle: carboxymethylcellulose (CMC)); 161 % of control (dose: 200.0 mg/kg/injection, schedule: Q01DX Z (ip), vehicle: carboxymethylcellulose (CMC)); 87 % of control (dose: 400.0 mg/kg/injection, schedule: Q01DX Z (ip), vehicle: carboxymethylcellulose (CMC)).

Consider `CCCC(C(N)=O)N(CCO)CCO` (centres undefined), for which the T/C (dose: 100.0 mg/kg/injection, schedule: Q04DX002 (ip), vehicle: saline) is 90 % of control; the T/C (dose: 200.0 mg/kg/injection, schedule: Q04DX002 (ip), vehicle: saline) was 90 % of control; the T/C (dose: 400.0 mg/kg/injection, schedule: Q04DX002 (ip), vehicle: saline) is 90 % of control.

Take `CCCC(O)S(=O)(=O)O` (centres undefined): the T/C is 103 % of control (dose: 50.0 mg/kg/injection, schedule: Q01DX009 (ip), vehicle: saline); 94 % of control under setting [1]; 102 % of control (dose: 100.0 mg/kg/injection, schedule: Q04DX003 (ip), vehicle: acetone); 97 % of control (dose: 200.0 mg/kg/injection, schedule: Q01DX009 (ip), vehicle: saline); 99 % of control (dose: 200.0 mg/kg/injection, schedule: Q04DX003 (ip), vehicle: acetone); 93 % of control (dose: 400.0 mg/kg/injection, schedule: Q04DX003 (ip), vehicle: acetone).

`CCOc1nc(N)nc2c1-c1ccccc1CC2`: the T/C runs as follows: (dose: 100.0 mg/kg/injection, schedule: Q04DX003 (ip), vehicle: saline with Tween-80) 97 % of control; (dose: 200.0 mg/kg/injection, schedule: Q04DX003 (ip), vehicle: saline with Tween-80) 97 % of control; (dose: 400.0 mg/kg/injection, schedule: Q04DX003 (ip), vehicle: saline with Tween-80) 90 % of control.

As to `CCOC(=O)c1c[nH]c2c(ccc3cc(OC)ccc32)c1=O`, the T/C reads like this: under setting [2], 101 % of control; under setting [3], 97 % of control; under setting [4], 97 % of control.

As to `NCC(=O)c1ccc(O)c(O)c1`, the T/C is 101 % of control under setting [5]; 122 % of control under setting [1]; 97 % of control under setting [6]; 115 % of control (dose: 175.0 mg/kg/injection, schedule: Q01DX Z (ip), vehicle: methylcellulose (MC)); 93 % of control (dose: 200.0 mg/kg/injection, schedule: Q01DX001 (ip), vehicle: saline); 97 % of control under setting [7]. Besides, the T/C runs as follows: (dose: 260.0 mg/kg/injection, schedule: Q01DX Z (ip), vehicle: carboxymethylcellulose (CMC)) 112 % of control; (dose: 260.0 mg/kg/injection, schedule: Q01DX Z (ip), vehicle: methylcellulose (MC)) 121 % of control; (dose: 270.0 mg/kg/injection, schedule: Q01DX Z (ip), vehicle: methylcellulose (MC)) 117 % of control; under setting [8], 104 % of control; (dose: 400.0 mg/kg/injection, schedule: Q01DX009 (ip), vehicle: saline) 124 % of control; (dose: 400.0 mg/kg/injection, schedule: Q01DX Z (ip), vehicle: methylcellulose (MC)) 112 % of control. Besides, the T/C runs as follows: under setting [9], 95 % of control; (dose: 600.0 mg/kg/injection, schedule: Q01DX Z (ip), vehicle: carboxymethylcellulose (CMC)) 116 % of control; (dose: 600.0 mg/kg/injection, schedule: Q01DX Z (ip), vehicle: methylcellulose (MC)) 114 % of control; (dose: 1344.0 mg/kg/injection, schedule: Q01DX Z (ip), vehicle: carboxymethylcellulose (CMC)) 92 % of control.

For `O=[N+]([O-])c1ccc([S][Pb]([c]2ccccc2)([c]2ccccc2)[c]2ccccc2)cc1`, the T/C reads like this: under setting [10], 111 % of control; under setting [11], 93 % of control.

In the case of `CSc1ccc(NC(=O)Nc2cc(Cl)c(Cl)cc2C)cc1`, the T/C runs as follows: under setting [2], 87 % of control; under setting [3], 87 % of control; under setting [4], 86 % of control and 92 % of control; (dose: 400.0 mg/kg/injection, schedule: Q01DX009 (ip), vehicle: Klucel (hydroxypropylcellulose) (HPC)) 86 % of control.

As for `O=C(Nc1ccc(Cl)cc1)O/C(=C(/OC(=O)Nc1ccc(Cl)cc1)c1ccc(Cl)cc1)c1ccc(Cl)cc1`, the T/C reads like this: under setting [10], 96 % of control; under setting [11], 92 % of control; (dose: 400.0 mg/kg/injection, schedule: Q04DX002 (ip), vehicle: Klucel (hydroxypropylcellulose) (HPC)) 89 % of control.

On to `CCCCNC(=O)c1ncccc1C(=O)O`, for which the T/C was 111 % of control under setting [12]; 102 % of control (dose: 100.0 mg/kg/injection, schedule: Q04DX003 (ip), vehicle: carboxymethylcellulose (CMC)); 103 % of control under setting [13]; 95 % of control (dose: 200.0 mg/kg/injection, schedule: Q04DX003 (ip), vehicle: carboxymethylcellulose (CMC)); 97 % of control under setting [14].

Turning to `COc1cccc(/C=N\NC(=O)CCCC(=O)N/N=C/c2cccc(OC)c2)c1`, the T/C reads like this: (dose: 50.0 mg/kg/injection, schedule: Q01DX001 (ip), vehicle: saline) 87 % of control; under setting [5], 90 % of control; under setting [8], 103 % of control.

For the compound `Cc1cnc2c(=N)n(C(=O)C(F)(F)F)n(C)c2n1`, the T/C is 104 % of control under setting [3]; 94 % of control under setting [6]; 102 % of control under setting [4]; 110 % of control under setting [7]; 95 % of control under setting [9].

Take `CC1(C)CC(=O)N(c2ccccc2)N1`: the T/C (dose: 100.0 mg/kg/injection, schedule: Q04DX003 (ip), vehicle: Klucel (hydroxypropylcellulose) (HPC)) was 94 % of control; the T/C (dose: 200.0 mg/kg/injection, schedule: Q04DX003 (ip), vehicle: Klucel (hydroxypropylcellulose) (HPC)) was 103 % of control; the T/C (dose: 400.0 mg/kg/injection, schedule: Q04DX003 (ip), vehicle: Klucel (hydroxypropylcellulose) (HPC)) was 107 % of control.

`O=C1C(Cl)=C(Cl)C(=O)c2ccccc21`: the T/C is, setting by setting: (dose: 0.5 mg/kg/injection, schedule: Q01DX009 (ip), vehicle: Klucel (hydroxypropylcellulose) (HPC)) 108 % of control; (dose: 1.0 mg/kg/injection, schedule: Q01DX009 (ip), vehicle: Klucel (hydroxypropylcellulose) (HPC)) 110 % of control; (dose: 1.0 mg/kg/injection, schedule: Q04DX003 (ip), vehicle: Klucel (hydroxypropylcellulose) (HPC)) 105 % of control; (dose: 2.0 mg/kg/injection, schedule: Q01DX009 (ip), vehicle: Klucel (hydroxypropylcellulose) (HPC)) 108 % of control; (dose: 2.0 mg/kg/injection, schedule: Q04DX003 (ip), vehicle: Klucel (hydroxypropylcellulose) (HPC)) 108 % of control; (dose: 4.0 mg/kg/injection, schedule: Q04DX003 (ip), vehicle: Klucel (hydroxypropylcellulose) (HPC)) 110 % of control. Further, the T/C (dose: 5.0 mg/kg/injection, schedule: Q01DX009 (ip), vehicle: saline with Tween-80) is 93 % of control; the T/C (dose: 10.0 mg/kg/injection, schedule: Q01DX009 (ip), vehicle: saline with Tween-80) is 97 % of control; the T/C (dose: 20.0 mg/kg/injection, schedule: Q01DX009 (ip), vehicle: saline with Tween-80) is 97 % of control.

`CC(C)(Oc1ccc(Cl)cc1)C(=O)O` (tested in a mixture with another compound): the T/C is, setting by setting: under setting [6], 94 % of control; under setting [7], 91 % of control; under setting [9], 91 % of control.

For the compound `Brc1ccc(N=C2NN=CC2(c2ccccc2)c2ccccc2)cc1`, the T/C runs as follows: under setting [12], 94 % of control; under setting [13], 88 % of control; under setting [14], 88 % of control.
